Experimental findings from PubChem BioAssay (NCI) are described below.

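Interpolation was linear, between the two tested concentrations surrounding the appropriate level; five concentrations were tested over 48 hours in 96-well plates. Abbreviation: GI50, concentration required for 50% inhibition of growth. TGI: concentration producing complete growth inhibition.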

Assay in all cases: NCI anticancer screen, dose series, 48 h
Assay [1] has as its system SF-539 CNS.
Assay [2] deals with ACHN renal.
Assay [3] has as its system HOP-92 NSCLC.
In assay [4] the test system is KM12 colon.
For assay [5], the system named is A549 NSCLC.
For assay [6], the system named is SK-OV-3 ovarian.
Assay [7] deals with 786-0 renal.
In assay [8] the test system is NCI-H23 lung.
Assay [9] relates to SK-MEL-2 melanoma.
The test system of assay [10] is DU-145 prostate.

For `CCN(CC)CC(=O)/C=C/c1ccc(C)cc1`, the TGI was 37 µM in assay [1]; 35.1 µM in assay [2]; 92.4 µM in assay [3]; 39 µM in assay [4]; 60.8 µM in assay [5]; 82.5 µM in assay [6]. The TGI in assay [7] is 34.4 µM; in [8] it was over 100 µM.

Turning to `NC1CCCCC1N.O=C([O-])P(=O)([O-])[O-].[Na+].[Pt+4]` (configuration not stated), the GI50 in assay [1], in assay [2], in assay [4], in [5], in assay [6] and in assay [7] was over 100 µM each time. In addition, the GI50 in [8] was over 100 µM. Besides, the TGI in [1], in assay [2], in assay [4], in assay [5], in assay [6] and in assay [7] was over 100 µM throughout. In assay [8], this compound showed a TGI of over 100 µM.

On to `O=c1[nH]c(-c2ccccc2)nc2ccc(Cl)cc12`, for which the TGI is over 100 µM in assay [1]; over 100 µM in assay [2]; 84.1 µM in assay [3]; over 100 µM in assay [4]; over 100 µM in assay [5]; over 100 µM in assay [9]. The TGI in assay [7] and in assay [8] was over 100 µM throughout.

Take `O=S(=O)([O-])[O-].[Cl-].[NH2-].[NH2-].[NH2-].[NH2-].[Ru+3].c1ccc(-c2cccnc2)cc1`: the GI50 in assay [1], in assay [2], in [3], in assay [4], in assay [5] and in assay [9] was over 100 µM each time. Besides, the GI50 in assay [6], in assay [7] and in assay [8] was over 100 µM in each case. Moreover, the TGI in assay [1], in assay [2], in assay [3], in [4], in assay [5] and in assay [9] was over 100 µM throughout. In addition, the TGI in assay [6], in assay [7] and in [8] was over 100 µM in each case.

On to `Cc1cc2c(cc1C)[n+](=O)c(C(=O)/C=C/c1ccc(Cl)cc1)c(C)n2[O-]`, for which the TGI is 47.3 µM in assay [1]; 62 µM in [2]; over 100 µM in assay [3]; over 100 µM in [4]; 80.4 µM in [5]; 79.1 µM in assay [9]. In addition, the TGI in [6] was over 100 µM; in assay [7], 34.4 µM; in [8], 65.6 µM.

Turning to `COc1cc(N=Nc2ccccc2)cc(/C=N\[N-]C(N)=S)c1[O-].COc1cc(N=Nc2ccccc2)cc(/C=N\[N-]C(N)=S)c1[O-].[Fe+4]`, the GI50 in assay [1] was 43.5 µM; in assay [3] it was over 100 µM; in assay [4], 23 µM; in assay [5], 46.4 µM; in assay [9] it was 7.72 µM; in assay [6], over 100 µM. The GI50 in assay [7] is 36.2 µM; in assay [8], 21.1 µM. Besides, the TGI in assay [1] was over 100 µM; in [3] it was over 100 µM; in assay [4], over 100 µM; in assay [5], over 100 µM; in [9], 50.4 µM; in [6], over 100 µM. The TGI in [7] and in assay [8] was over 100 µM in each case.

Take `COc1ccc(-c2nsc3c2NC(=O)CC3c2ccc3c(c2)OCO3)cc1` (configuration not stated): the GI50 in [1] is 1.05 µM; in assay [10] it was 2.78 µM; in assay [2], 3.14 µM; in assay [4], 0.645 µM; in assay [5], 0.841 µM; in [6] it was 2.33 µM. Further, the values for the GI50 in [7] and in assay [8] were 3.24 µM and 3.2 µM, respectively. Besides, the TGI in assay [1] was 3.7 µM; in assay [10], 53.1 µM; in assay [2], over 100 µM; in assay [4], over 100 µM; in [5], over 100 µM; in [6], over 100 µM. Further, the TGI in [7] and in assay [8] was over 100 µM throughout.

With `O=C(O)CNS(=O)(=O)c1ccc(NC(=O)c2ccc(F)cc2)cc1`, the TGI in assay [1], in assay [2], in assay [3], in [4], in assay [5] and in assay [9] was over 100 µM in each case. The TGI in [6], in [7] and in [8] was over 100 µM throughout.

In the case of `O=C1CCC2CCc3cccc4oc1c2c34` (configuration not stated), the TGI in [1] was over 100 µM; in [2] it was over 100 µM; in assay [3] it was 98.6 µM; in [5] it was over 100 µM; in assay [6], over 100 µM; in assay [7] it was over 100 µM. Also, the TGI in assay [8] is over 100 µM.

Regarding `CC1=C(C)CC2(SC1)C(=O)c1ccccc1C2=O`, the TGI in assay [1], in assay [2], in [3], in [4], in assay [5] and in [9] was over 100 µM throughout. The TGI in [6] and in assay [7] was over 100 µM throughout.

Turning to `O=C1c2ccccc2-c2nccc3cc(Cl)nc1c23`, the GI50 in assay [1] is 4.88 µM; in [3], 1.56 µM; in [5], 5.15 µM; in assay [9], 2.83 µM; in assay [6], 35.9 µM; in [7], 5.72 µM. For the same compound, the GI50 in assay [8] was 1.12 µM. In addition, the TGI is 24.7 µM in assay [1]; 5.64 µM in [3]; over 94.1 µM in assay [5]; 7.28 µM in [9]; over 100 µM in assay [6]; over 100 µM in assay [7]. In addition, the TGI in assay [8] came to 2.4 µM.
